Experiments:
Hey ovarian cancer cells = assay: Cell migration and invasion (small chamber) with MCM2 knockdown or overexpression; assay type: cell-based, human
Experimental: (§1) The night before collecting cells, small chambers were placed in a 24 well plate. A matrix gel was taken out from the −20° C. refrigerator and placed to melt naturally on ice. The thawed matrix gel was mixed with serum-free medium in a ratio of 1:5, and 100 μL of the mixture was added to each chamber. After preparation, the 24 well plate was placed in the incubator overnight. The next day, SKOV3 and Hey ovarian cancer cells in logarithmic growth phase were knocked down with MCM2 (Control group, sh-NC group, sh-MCM2 group) and overexpressed with MCM2 (Control group, OE-NC group, OE-MCM2 group). The original culture medium was discarded, washed with PBS buffer, and digested with 0.1% trypsin. A corresponding serum-free culture medium was added to prepare a cell suspension. Cells were counted using a hemocytometer and the cell concentration was quantified at 5×10^4 cells/mL. The 24 well plate was taken out and placed in a small chamber for a migration experiment and the 24 well plate with the matrix gel for an invasion experiment. 200 μL of a corresponding cell suspension was added to an upper chamber, and 700 μL of a corresponding culture medium containing 10% FBS was added to a lower chamber. The 24 well plate was further placed in an incubator for cultivation. The 24 well plate for the migration experiment was cultured for 24 hours before being taken out, while the 24 well plate for the invasion experiment was cultured for 48 hours before being taken out. The culture medium in the small chamber was poured out. The inside of the small chamber was cleaned with a cotton swab, and washed twice with the PBS buffer. The small chamber was fixed in 4% paraformaldehyde for 30 minutes, and stained in 1% crystal violet solution for 10 minutes after fixation. The small chamber was taken out, washed twice with the PBS buffer, dried with an absorbent paper, observed and counted under a microscope. The impact of CA, BDMC, and combined administration intervention on cell migration after knocking down MCM2 in SKOV3 and Hey ovarian cancer cells was shown in FIGS. 19A-19D. The scale in FIGS. 19A-19D was 10 μM; A represented the migration of SKOV3 cells; B represented the migration of Hey cells; C represented the invasion of SKOV3 cells; and D represented the invasion of Hey cells. Compared with the sh-NC group, ##P<0.01; compared with the sh-NC+CA+BDMC group, &&P<0.01; and ** P<0.01. The impact of CA, BDMC, and combined administration intervention on cell migration after overexpression of MCM2 on the SKOV3 and Hey ovarian cancer cells was shown in FIGS. 20A-20D. The scale in FIGS. 20A-20D was 10 μM, A represented the migration of SKOV3 cells; B represented the migration of Hey cells; C represented the invasion of SKOV3 cells; and D represented the invasion of Hey cells. Compared with the OE-NC group, ##P<0.01; compared with the OE-NC+CA+BDMC group, &&P<0.01; and compared with the OE-MCM2+CA+BDMC group, ΔP<0.05, ΔΔP<0.01; and ** P<0.01.

[1] = system: SKOV3 ovarian cancer cells; assay: as above; assay type: cell-based, human
Experimental: as §1

[2] = system: CDK4, Cyclin D1, P21 in Hey cells; assay: Expression of cell cycle related proteins in cells; assay type: cell-based, human
[3] = system: MCM2, CDK4, Cyclin D1, P21; assay: Immunohistochemical assay of tumor body cell cycle related proteins in tumor bearing nude mice; assay type: in vivo, BALB/c nude mice; conditions: nude mouse tumor body, compared to the Control group
Experimental: The immunohistochemistry of tumor body cyclin in tumor bearing nude mice after intervention with DDP, CA, BDMC, and combined administration was shown in FIG. 28. The image was magnified by 400×, with a scale of 10 μM. The expression of MCM2, CDK4, and Cyclin D1 proteins in the CA group, BDMC group, and CA+BDMC group decreased compared to the Control group; and the expression of MCM2, CDK4, and Cyclin D1 proteins in the CA+BDMC group decreased compared to the CA group and BDMC group. The expression of P21 protein in the CA group, BDMC group, and CA+BDMC group increased compared to the Control group; and the expression of P21 protein in the CA+BDMC group increased compared to the CA group and BDMC group.

[4] = system: MCM2, CDK4, Cyclin D1, P21; assay: Western Blot of tumor body cyclin in tumor bearing nude mice; assay type: in vivo, BALB/c nude mice; conditions: nude mouse tumor body, compared to the Control group
From the text: The expression of nude mice tumor body cyclin and EMT related proteins in tumor bearing nude mice after intervention with DDP, CA, BDMC, and combined administration was shown in FIG. 29. In the figure, 1 represented the Control group; 2 represented the DDP group; 3 represented the CA group; 4 represented the BDMC group; and 5 represented the CA+BDMC group.

[5] = system: E-cadherin, N-cadherin, Vimentin; assay: Western Blot of tumor body EMT related proteins in tumor bearing nude mice; assay type: in vivo, BALB/c nude mice; conditions: nude mouse tumor body, compared to the Control group
From the text: The expression of EMT related proteins was shown in FIG. 30: (1) represented the Control group; (2) represented the DDP group; (3) represented the CA group; (4) represented the BDMC group; and (5) represented the CA+BDMC group.

[6] = Hey OE-MCM2 cells (MCM2 overexpression), vs OE-MCM2 group
[7] = Hey OE-NC cells (empty vector), vs OE-NC group
[8] = Hey sh-MCM2 cells (MCM2 knockdown), vs sh-MCM2 group
[9] = Hey sh-NC cells (empty vector), vs sh-NC group
[10] = SKOV3 OE-MCM2 cells (MCM2 overexpression), vs OE-MCM2 group
[11] = SKOV3 OE-NC cells (empty vector), vs OE-NC group
[12] = SKOV3 sh-MCM2 cells (MCM2 knockdown), vs sh-MCM2 group
[13] = SKOV3 sh-NC cells (empty vector), vs sh-NC group

COc1ccc(-c2coc3cc(O)ccc3c2=O)cc1O [CA, calycosin]
number of the invading cells (Hey ovarian cancer cells; [6]): no significant change | number of the migrating cells (Hey ovarian cancer cells; [6]): no significant change | number of the invading cells (Hey ovarian cancer cells; [7]): significantly reduced | number of the migrating cells (Hey ovarian cancer cells; [7]): significantly reduced | number of the invading cells (Hey ovarian cancer cells; [8]): no significant change | number of the migrating cells (Hey ovarian cancer cells; [8]): no significant change | number of the invading cells (Hey ovarian cancer cells; [9]): significantly reduced | number of the migrating cells (Hey ovarian cancer cells; [9]): significantly reduced | number of the invading cells [1, 10]: no significant change | number of the migrating cells [1, 10]: no significant change | number of the invading cells [1, 11]: significantly reduced | number of the migrating cells [1, 11]: significantly reduced | number of the invading cells [1, 12]: no significant change | number of the migrating cells [1, 12]: no significant change | number of the invading cells [1, 13]: significantly reduced | number of the migrating cells [1, 13]: significantly reduced | expression of CDK4 [2, 6]: no significant change | expression of Cyclin D1 [2, 6]: no significant change | expression of P21 [2, 6]: no significant change | expression of CDK4 [2, 7]: significantly decreased | expression of Cyclin D1 [2, 7]: significantly decreased | expression of P21 [2, 7]: significantly increased | expression of CDK4 [2, 8]: no significant change | expression of Cyclin D1 [2, 8]: no significant change | expression of P21 [2, 8]: no significant change | expression of CDK4 [2, 9]: significantly decreased | expression of Cyclin D1 [2, 9]: significantly decreased | expression of P21 [2, 9]: significantly increased | expression of CDK4 protein (immunohistochemistry) [3]: decreased | expression of Cyclin D1 protein (immunohistochemistry) [3]: decreased | expression of MCM2 protein (immunohistochemistry) [3]: decreased | expression of P21 protein (immunohistochemistry) [3]: increased | expression of CDK4 protein (Western Blot) [4]: significantly decreased | expression of Cyclin D1 protein (Western Blot) [4]: significantly decreased | expression of MCM2 protein (Western Blot) [4]: significantly decreased | expression of P21 protein (Western Blot) [4]: significantly increased | expression of E-cadherin protein (Western Blot) [5]: significantly increased | expression of N-cadherin protein (Western Blot) [5]: significantly decreased | expression of Vimentin protein (Western Blot) [5]: significantly decreased

Source: US20250235499A1, “ANTI-OVARIAN CANCER PHARMACEUTICAL COMPOSITION AND ACTION TARGET THEREOF” (Zhejiang Chinese Medical University, priority 2024, published 2025)
